Test results published in ChEMBL document CHEMBL1127974, “Design, synthesis, and activity of conformationally-constrained macrocyclic peptide-based inhibitors of HIV protease” (Bioorg Med Chem Lett, 1994).

Legend:
MT2 = assay: Effective concentration against HIV infected MT-2 cell line; assay type: functional, cell-based; conditions: Homo sapiens
[1] = target: T1, Human immunodeficiency virus type 1 protease (Human immunodeficiency virus 1, UniProt Q72874); assay: In vitro inhibition HIV-1 IIIB protease.
[2] = target: T1, Human immunodeficiency virus type 1 protease; assay: In vitro inhibitory activity of compound against HIV protease from BRU (IIIB) strain of HIV- 1 virus was determined

Structure (SMILES)	EC50 (MT2)	IC50 [1]	IC50 [2]
CC(C)(C)NC(=O)[C@@H]1C[C@@H]2CCCC[C@@H]2CN1C[C@@H](O)[C@H](Cc1ccccc1)NC(=O)[C@H](CC(N)=O)NC(=O)c1ccc2ccccc2n1	5 nM		
CC(C)(C)NC(=O)[C@@H]1CCCN1C[C@@H](O)[C@@H]1Cc2ccc(cc2)OCCOc2cc3ccccc3cc2C(=O)N[C@@H](CC(N)=O)C(=O)N1		450 nM	
CC(C)(C)NC(=O)[C@@H]1CCCN1C[C@@H](O)[C@@H]1Cc2ccc(cc2)OCCCCOc2cc3ccccc3cc2C(=O)N[C@@H](CC(N)=O)C(=O)N1		900 nM	
CC(C)[C@@H]1NC(=O)/C=C\CCCCCOc2ccc(cc2)C[C@@H]([C@H](O)CN2CC3CCCCC3C[C@H]2C(=O)NC(C)(C)C)NC1=O (stereo partly drawn)	216 nM	25 nM	
CC(C)(C)NC(=O)[C@@H]1CCCN1C[C@@H](O)[C@@H]1Cc2ccc(cc2)OCCCOc2cc3ccccc3cc2C(=O)N[C@@H](CC(N)=O)C(=O)N1		400 nM	
CC(C)(C)NC(=O)[C@@H]1CCCN1C[C@H](O)[C@@H]1Cc2ccc(cc2)OCCCOc2cc3ccccc3cc2C(=O)N[C@@H](CC(N)=O)C(=O)N1		90000 nM	
CCCCCCC(=O)N[C@H](C(=O)N[C@@H](Cc1ccccc1)[C@H](O)CN1CC2CCCCC2C[C@H]1C(=O)NC(C)(C)C)C(C)C (stereo partly drawn)	378 nM	6 nM	
CC(C)[C@@H]1NC(=O)c2cc3ccccc3cc2OCCCOc2ccc(cc2)C[C@@H]([C@H](O)CN2CC3CCCCC3C[C@H]2C(=O)NC(C)(C)C)NC1=O (stereo partly drawn)	17 nM	5.5 nM	
CC(C)[C@@H]1NC(=O)/C=C\CCCOc2ccc(cc2)C[C@@H]([C@H](O)CN2CC3CCCCC3C[C@H]2C(=O)NC(C)(C)C)NC1=O (stereo partly drawn)	36 nM	7.3 nM	
CC(C)[C@@H]1NC(=O)c2ccccc2OCCCOc2ccc(cc2)C[C@@H]([C@H](O)CN2CC3CCCCC3C[C@H]2C(=O)NC(C)(C)C)NC1=O (stereo partly drawn)	20 nM	8 nM	
CC(C)(C)NC(=O)[C@@H]1C[C@@H]2CCCC[C@@H]2CN1C[C@@H](O)[C@@H]1Cc2ccc(cc2)OCCCCOc2cc3ccccc3cc2C(=O)N[C@@H](CC(N)=O)C(=O)N1	315 nM	88 nM	
CC(C)[C@@H]1NC(=O)CCCCCCCOc2ccc(cc2)C[C@@H]([C@H](O)CN2CC3CCCCC3C[C@H]2C(=O)NC(C)(C)C)NC1=O (stereo partly drawn)	26 nM	3.4 nM	
CC(C)[C@@H]1NC(=O)/C=C\CCCCOc2ccc(cc2)C[C@@H]([C@H](O)CN2CC3CCCCC3C[C@H]2C(=O)NC(C)(C)C)NC1=O (stereo partly drawn)	31 nM		9 nM
CC(C)(C)NC(=O)[C@@H]1C[C@@H]2CCCC[C@@H]2CN1C[C@@H](O)[C@@H]1Cc2ccc(cc2)OCCOc2cc3ccccc3cc2C(=O)N[C@@H](CC(N)=O)C(=O)N1	18 nM	13 nM	
CC(C)[C@@H]1NC(=O)CCCCCOc2ccc(cc2)C[C@@H]([C@H](O)CN2CC3CCCCC3C[C@H]2C(=O)NC(C)(C)C)NC1=O (stereo partly drawn)	8 nM	1.5 nM	
CC(C)[C@@H]1NC(=O)CCCCCCOc2ccc(cc2)C[C@@H]([C@H](O)CN2CC3CCCCC3C[C@H]2C(=O)NC(C)(C)C)NC1=O (stereo partly drawn)	4 nM	1 nM	
CC(C)(C)NC(=O)[C@@H]1C[C@@H]2CCCC[C@@H]2CN1C[C@@H](O)[C@@H]1Cc2ccc(cc2)OCCCOc2cc3ccccc3cc2C(=O)N[C@@H](CC(N)=O)C(=O)N1	14 nM	10 nM	
CC(C)[C@H](NC(=O)c1ccc2ccccc2c1)C(=O)N[C@@H](Cc1ccccc1)[C@H](O)CN1CC2CCCCC2C[C@H]1C(=O)NC(C)(C)C (stereo partly drawn)	8 nM	0.9 nM	
CC(=O)N[C@H](C(=O)N[C@@H](Cc1ccccc1)[C@H](O)CN1CC2CCCCC2C[C@H]1C(=O)NC(C)(C)C)C(C)C (stereo partly drawn)	29 nM	3 nM	
